Drawing on ChEMBL document CHEMBL6103651, “Total Syntheses, Absolute Configuration, and Cytotoxicity Evaluation of Ugonins L, S, U, and Z from the Rhizomes of Helminthostachys zeylanica” (J Nat Prod, 2025), this text covers IC50 for nine molecules.

The structures appear in SMILES notation.

One data set relates to MCF7. The data set is described as follows: Cytotoxicity against human MCF7 cells assessed as cell growth inhibition incubated for 6 hrs by SRB assay. The class given is functional, cell-based. The conditions noted are these: MCF7, 6 h. On the technique in general: In SRB staining, fixed cells bind dye roughly in proportion to their protein.
A further data set concerns CCRF-CEM. The data set is described as follows: Cytotoxicity against human CEM cells assessed as cell growth inhibition incubated for 6 hrs by SRB assay. The class given is functional, cell-based.
For the next data set, the system named is HT-29. The data set is described as follows: Cytotoxicity against human HT-29 cells assessed as cell growth inhibition incubated for 6 hrs by SRB assay. It counts as functional, cell-based. The settings on record: HT-29, 6 h.
A short description of data set [1]: Cytotoxicity against fibroblasts (unknown origin) assessed as cell growth inhibition incubated for 6 hrs by SRB assay. It counts as toxicity, cell-based, Fibroblast.
For the next data set, the system named is NCI-H460. Nature of the data set: Cytotoxicity against human NCI-H460 cells assessed as cell growth inhibition incubated for 6 hrs by SRB assay. It counts as functional, cell-based. The conditions noted are these: NCI-H460, 6 h.

A word on the IC50: it is the concentration needed to halve the response being measured. Consider `CC1(C)CCC[C@]2(C)Oc3c(c(O)cc4oc(-c5ccc(O)c(O)c5)cc(=O)c34)C[C@H]12`, for which the values for the IC50 with MCF7, in the data set on CCRF-CEM and in the data set with HT-29 were 18.9 µM, 5.9 µM and 34.1 µM, respectively. Further, the IC50 at 6 h in data set [1] was 34.1 µM.

Regarding `CC1(C)CCC[C@@]2(C)Oc3c(c(O)cc4oc(-c5ccc(O)c(O)c5)cc(=O)c34)C[C@H]12`, the IC50 in the data set with MCF7 worked out at 17.7 µM; with CCRF-CEM it was 4.8 µM; in the data set on HT-29, 36 µM. Besides, the IC50 at 6 h in data set [1] was found to be 36 µM.

As to `CC1(C)CCC[C@]2(C)Oc3cc4oc(-c5ccc(O)c(O)c5)cc(=O)c4c(O)c3C[C@H]12`, the IC50 with MCF7 turned out to be 16.7 µM; in the data set with CCRF-CEM, 4.2 µM; with HT-29 it was 21.9 µM; in the data set with NCI-H460, 2.2 µM. Also, the IC50 at 6 h in data set [1] worked out at 24.5 µM.

`CC1(C)CCC[C@]2(C)Oc3c(c(O)cc4oc(-c5ccc(O)c(O)c5)cc(=O)c34)C[C@@H]12`: the IC50 in the data set on MCF7 worked out at 6.5 µM; in the data set with CCRF-CEM, 4.2 µM; in the data set on HT-29, 24.5 µM. For the same molecule, in data set [1], the IC50 at 6 h stood at 24.5 µM.

Turning to `CC1(C)CCC[C@@]2(C)Oc3cc(O)c4c(=O)cc(-c5ccc(O)c(O)c5)oc4c3C[C@@H]12`, the IC50 in the data set on MCF7 is 28.2 µM; in the data set with CCRF-CEM it was 16.4 µM; with HT-29, 27.5 µM; in the data set on NCI-H460 it was 18.3 µM. In addition, in data set [1], the IC50 at 6 h amounted to 27.5 µM.

Take `CC1(C)CCC[C@]2(C)Oc3cc(O)c4c(=O)cc(-c5ccc(O)c(O)c5)oc4c3C[C@H]12`: the IC50 in the data set with MCF7 is 26 µM; in the data set with CCRF-CEM, 1.7 µM; in the data set on HT-29 it was 33.2 µM; in the data set with NCI-H460, 17.5 µM. For the same molecule, the IC50 at 6 h in data set [1] was 33.2 µM.

For the molecule `CC1(C)CCC[C@@]2(C)Oc3cc4oc(-c5ccc(O)c(O)c5)cc(=O)c4c(O)c3C[C@@H]12`, the IC50 came out at 19.1 µM with MCF7, 5.2 µM with CCRF-CEM, 37.1 µM with HT-29 and 7.1 µM in the data set with NCI-H460. The IC50 at 6 h in data set [1] was 37.1 µM.

For `COc1cccc2c1C(=O)c1c(O)c3c(c(O)c1C2=O)C[C@@](O)(C(=O)CO)C[C@@H]3O[C@H]1C[C@H](N)[C@H](O)[C@H](C)O1` [DOXORUBICIN], the IC50 in the data set with MCF7 was found to be 0.54 µM; in the data set on CCRF-CEM, 0.11 µM; in the data set on HT-29, 0.23 µM; in the data set on NCI-H460, 0.01 µM. For the same molecule, in data set [1], the IC50 at 6 h was 56.3 µM.

With `CC1(C)CCC[C@@]2(C)Oc3c(c(O)cc4oc(-c5ccc(O)c(O)c5)cc(=O)c34)C[C@@H]12` [UGONIN S], the IC50 with MCF7 came to 8.8 µM; with CCRF-CEM it was 6.2 µM; in the data set on HT-29 it was 21.9 µM. For the same molecule, the IC50 at 6 h in data set [1] turned out to be 21.9 µM.
